Experimental findings from PubChem BioAssay (NCI) are described below.

Among the test systems are UACC-257 melanoma; SW-620 colon; RPMI-8226 leukemia; MALME-3M melanoma; LOX IMVI melanoma; COLO 205 colon; KM12 colon; SF-539 CNS; SN12C renal; SNB-19 CNS.
Holding throughout (experiment): inhibition of tumour cell growth, NCI panel, 48 h

The structures appear in SMILES notation.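 Interpolation was linear, between the two tested concentrations surrounding the appropriate level; five concentrations were tested over 48 hours in 96-well plates. GI50 marks 50% less growth. TGI denotes the concentration required for complete inhibition of growth.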

On to `CCN1CCc2sc3[nH]c(=S)n(C)c(=O)c3c2C1`, for which the TGI with UACC-257 melanoma, in the assay with SW-620 colon, in the assay with RPMI-8226 leukemia, in the assay on MALME-3M melanoma, in the assay on LOX IMVI melanoma and in the assay with COLO 205 colon was above 100 µM throughout. Moreover, the TGI in the assay with KM12 colon, in the assay on SF-539 CNS, in the assay on SN12C renal and with SNB-19 CNS was above 100 µM each time.
As for `COc1cc2c(cc1C)NC(=O)/C2=C/c1c(Cl)n(C)c2ccccc12`, the TGI was 34.7 µM in the assay with UACC-257 melanoma; above 100 µM with SW-620 colon; above 100 µM in the assay with RPMI-8226 leukemia; 22.5 µM in the assay with MALME-3M melanoma; 22.7 µM in the assay on LOX IMVI melanoma; 31.2 µM with COLO 205 colon. Also, the TGI with KM12 colon was found to be 16.6 µM; with SF-539 CNS it was 56.5 µM; in the assay with SN12C renal it was 33.3 µM; in the assay with SNB-19 CNS, 38.6 µM.
As to `COc1ccc(N=Nc2ccc3oc(=O)c(C(=O)Nc4ccc(OC)cc4)cc3c2)cc1`, the TGI amounted to 73.9 µM in the assay with UACC-257 melanoma; 66.1 µM with SW-620 colon; 67.2 µM with RPMI-8226 leukemia; 52.7 µM in the assay on MALME-3M melanoma; 18.1 µM with LOX IMVI melanoma; 43.7 µM in the assay on COLO 205 colon. Also, the TGI in the assay with KM12 colon was determined as 33.5 µM; in the assay on SF-539 CNS, 22.8 µM; with SN12C renal, 45.2 µM; in the assay on SNB-19 CNS it was 83.1 µM.
`CC1=C2CC3=C(C)C(=O)O[C@H]3C[C@@H](C)[C@@H]2CC1`: the TGI in the assay on UACC-257 melanoma, in the assay with SW-620 colon, in the assay on RPMI-8226 leukemia, in the assay with MALME-3M melanoma, in the assay with LOX IMVI melanoma and with COLO 205 colon was above 100 µM in each case. For the same compound, the TGI with KM12 colon and in the assay on SNB-19 CNS was above 100 µM throughout.
Turning to `COC[C@@H](N=Cc1ccc(OC)cc1)C(C)C`, the TGI with UACC-257 melanoma, in the assay with SW-620 colon, with RPMI-8226 leukemia, in the assay on MALME-3M melanoma, in the assay on LOX IMVI melanoma and in the assay on COLO 205 colon was above 100 µM in each case. In addition, the TGI in the assay with KM12 colon and in the assay with SN12C renal was above 100 µM in each case.
On to `O=C(Cl)c1cc([N+](=O)[O-])cc([N+](=O)[O-])c1`, for which the TGI in the assay on UACC-257 melanoma, in the assay on SW-620 colon, in the assay with RPMI-8226 leukemia, in the assay on MALME-3M melanoma, in the assay on LOX IMVI melanoma and in the assay with COLO 205 colon was above 100 µM throughout. For the same compound, the TGI in the assay on KM12 colon, in the assay with SF-539 CNS and in the assay with SNB-19 CNS was above 100 µM each time.
Take `CC1(C)CC(=O)C2=C(C1)OC1=C(CC(C)(C)CC1=O)C2c1ccccc1Cl` (stereo unspecified): the TGI with UACC-257 melanoma, in the assay on SW-620 colon, in the assay on RPMI-8226 leukemia, in the assay with MALME-3M melanoma, with LOX IMVI melanoma and with COLO 205 colon was above 100 µM each time. Moreover, the TGI in the assay with SF-539 CNS, with SN12C renal and in the assay on SNB-19 CNS was above 100 µM in each case.
Consider `O=c1n(CCO)nc2n1CCCN2`, for which the TGI in the assay with SW-620 colon, in the assay with RPMI-8226 leukemia, in the assay with MALME-3M melanoma, in the assay with LOX IMVI melanoma, with COLO 205 colon and in the assay on KM12 colon was above 100 µM in each case. Also, the TGI in the assay on SF-539 CNS, in the assay with SN12C renal and in the assay with SNB-19 CNS was above 100 µM throughout.
`COC(=O)[C@H]1ON2O[C@H](OC3CCCC[C@@H]3c3ccccc3)C[C@@H]3CC[C@H]1[C@@]32C` (stereo partly specified): the TGI in the assay with UACC-257 melanoma, in the assay on SW-620 colon, with RPMI-8226 leukemia, with MALME-3M melanoma, in the assay on LOX IMVI melanoma and in the assay on COLO 205 colon was above 100 µM in each case. Also, the TGI in the assay on KM12 colon, in the assay with SN12C renal and in the assay on SNB-19 CNS was above 100 µM throughout.
As to `COc1ccc2c(c1)CCC1C2CCC2(C)C1CC[C@@]2(O)CNC(=O)/C=C/c1ccc(O)c(O)c1` (stereo partly specified), the GI50 in the assay with UACC-257 melanoma is 18.5 µM; in the assay with SW-620 colon, 4.07 µM; in the assay on MALME-3M melanoma it was 3.56 µM; in the assay on LOX IMVI melanoma, 1.58 µM; in the assay on COLO 205 colon, 1.81 µM; with KM12 colon, 2.44 µM. Moreover, the GI50 in the assay with SF-539 CNS is 2.08 µM; in the assay on SN12C renal, 2.57 µM; in the assay on SNB-19 CNS it was 3.31 µM. Further, the TGI in the assay with UACC-257 melanoma is 35.7 µM; in the assay with SW-620 colon, above 100 µM; with MALME-3M melanoma, 9.6 µM; with LOX IMVI melanoma, 5.57 µM; in the assay with COLO 205 colon, 5.75 µM; with KM12 colon, 7.82 µM. Also, the figures for the TGI in the assay with SF-539 CNS, with SN12C renal and with SNB-19 CNS were 6.75 µM, 8.84 µM and above 100 µM, respectively.
For `C[N+]12C=CC=C1C(N1CCCC1)c1sc(-c3ccc(Cl)cc3)cc12` (stereo unspecified), the TGI in the assay on UACC-257 melanoma is 28.9 µM; in the assay on SW-620 colon, 29.9 µM; with RPMI-8226 leukemia, 57.7 µM; in the assay with MALME-3M melanoma it was 31.1 µM; in the assay on LOX IMVI melanoma, 29.5 µM; in the assay on COLO 205 colon, 31.6 µM. In addition, the TGI is 33.4 µM in the assay on KM12 colon, 27.9 µM in the assay with SN12C renal and 26.8 µM in the assay on SNB-19 CNS.
As for `CCC1(CC)C(=O)N(C(=O)c2ccc(Cl)cc2)N(C(=O)c2ccccc2Cl)C1=O`, the TGI in the assay with UACC-257 melanoma was above 100 µM; in the assay on SW-620 colon, 89.8 µM; in the assay on RPMI-8226 leukemia, 78.9 µM; in the assay on MALME-3M melanoma it was above 100 µM; in the assay on LOX IMVI melanoma it was 50.3 µM; in the assay on COLO 205 colon, above 100 µM. The TGI with KM12 colon, with SN12C renal and with SNB-19 CNS was above 100 µM throughout.
For `CN(C)CCCn1c2c(c3ccncc3c1=O)C(=O)c1ccccc1-2`, the GI50 in the assay with UACC-257 melanoma was 1.68 µM; in the assay with SW-620 colon it was 0.41 µM; in the assay with RPMI-8226 leukemia, 1.72 µM; in the assay on MALME-3M melanoma it was 0.978 µM; in the assay on LOX IMVI melanoma, 0.36 µM; in the assay with COLO 205 colon, 0.806 µM. Further, the GI50 was 0.641 µM in the assay on KM12 colon, 0.714 µM with SF-539 CNS and 0.958 µM in the assay on SN12C renal. For the same compound, the TGI in the assay with UACC-257 melanoma is 5.22 µM; in the assay on SW-620 colon, 13.1 µM; with RPMI-8226 leukemia, 7.62 µM; in the assay on MALME-3M melanoma, 2.5 µM; in the assay with LOX IMVI melanoma, 4.95 µM; in the assay with COLO 205 colon, 14.3 µM. For the same compound, the TGI in the assay on KM12 colon was found to be 11.5 µM; in the assay with SF-539 CNS, 5.95 µM; with SN12C renal, 19.1 µM.
